Measured values published in US20110044952A1, “AMPLIFICATION OF CANCER-SPECIFIC ONCOLYTIC VIRAL INFECTION BY HISTONE DEACETYLASE INHIBITORS” (Ottawa Health Research Institute, priority 2007, published 2011).

tested on: VSV-d51-GFP; type: cell-based

| SMILES | amount of GFP-positive cells as an indication of VSV replication |
| --- | --- |
| O=C(CCCCCCC(=O)Nc1ccccc1)NO [SAHA, suberoylanilide hydroxamic acid] | increased the amount of GFP-positive cells |
| Nc1ccccc1NC(=O)c1ccc(CNC(=O)OCc2cccnc2)cc1 [MS-275] | increased the amount of GFP-positive cells |
| CCCC(CCC)C(=O)O [VPA] | little to no effect |
| O=C(/C=C/c1cccc(S(=O)(=O)Nc2ccccc2)c1)NO [PXD101] | increased the amount of GFP-positive cells |
